From patent US9410128B2, “Method and compounds for generation of iPSCs” (Sanford-Burnham Medical Research Institute, priority 2011, dated 2016)

Columns and labels:
Format in all cases: cell-based, mouse
Oct4-EGFP MEFs [1] = assay: Alkaline phosphatase (AP)+ colony formation during reprogramming; details: molecules applied during reprogramming; data not shown
Experimental: iPS cells were seeded and cultured on 0.1% gelatin-coated 6-well plates. Four days later, cells were fixed with 4% paraformadehyde (Electron Microscopy Sciences; Cat#15710-S). For immunofluorescence, fixed cells were permeabilized with 0.1% Triton X-100 in PBS and blocked with 5% BSA in PBS. SSEA-1 (R&D; Cat#MAB2155), Sox2 (R&D; Cat#MAB2018), and Nanog (R&D; Cat#AF2729) antibodies were used to detect ES markers. Nuclei were visualized by Hoechst 33342 (Invitrogen) staining. For AP staining, fixed cells were treated with alkaline phosphatase substrate following the manufacturer's instruction (Vector Laboratories; Cat#SK-5100).
All 17 molecules were tested by examining alkaline phosphatase (AP)+ colony formation during reprogramming while these molecules were applied. […] To that end, 6 molecules were picked including nabumetone, 4-hydroxytamoxifen (OHTM), corynanthine, moclobemide, NiSO4, and lectin—for further analysis (FIG. 2A). To evaluate their effect on induction of mature GFP+ iPS cells, OSKM-transduced Oct4-EGFP MEFs were treated four days after transduction with each of these factors separately.

Oct4-EGFP MEFs [2] = assay: OKM (without Sox2) reprogramming of Oct4-EGFP MEFs, GFP+ colony count
Experimental: Oct4-EGFP MEFs were derived from the mouse strain B6; 129S4-Pou5f1^tm2(EGFP)Jae/J (The Jackson Laboratory, Bar Harbor, Me., USA, on the world wide web at jax.org/; stock #008214) following the protocol on the WiCell Research Institute, Madison, Wis., USA, on the world wide web at wicell.org/website. In brief, embryonic day 13.5 (E13.5) embryos were collected from timemated pregnant female mice and then tested for microbial contamination. […]
(§1) Reprogramming was conducted as described in Takahashi et al. (Cell 126: 663-676 (2006)). […] Reprogrammed (EGFP+) cells were identified and scored by fluorescence microscopy two to three weeks post transduction, unless otherwise stated. […]
Oct4-EGFP MEFs were transduced with OKM and treated with pool of 6 molecules, including NiSO4, nabumetone, OHTM, moclobemide, lectin, and corynanthine, at day 4 for at least 10 days. GFP+ colonies were identified and counted as described in FIG. 1 at day 14. […]
Oct4-EGFP MEFs were transduced with OKM and four days later treated with 1.25 uM OHTM at least 10 days. GFP+ colonies were counted as described in FIG. 1 at day 15˜21. […]
Oct4-EGFP MEFs were transduced with OKM and four days later treated with 2.18 uM nabumetone (Nabu) for at least 10 days. GFP+ colonies were counted as described in FIG. 1 at day 17˜21. […]

Sox2 = assay: Endogenous Sox2 mRNA expression by real time qRT-PCR in OKM-transduced Oct4-EGFP MEFs; details: OKM-transduced cells, compared with OKM+DMSO (FIG. 3E)
Excerpt: To understand the molecular mechanism underlying OHTM's effect on reprogramming, the question of whether OHTM induces endogenous Sox2 expression was posed. To do so, OHTM or control DMSO was applied to Oct4-EGFP MEF four days after transduction with OKM. Cells were harvested at indicated time points for total RNA isolation and real time qRT-PCR analysis (FIG. 3E). […] However, the direct targets of OHTM to affect Sox2 expression were not clear.
Oct4-EGFP MEFs were transduced with OKM and treated with OHTM four days later. Cells were harvested at indicated days (D) for real time RT-PCR analysis. β actin expression serves as an internal control. Error bars represent standard deviation of 2˜3 independent experiments. * p value <0.05.

Oct4-EGFP MEFs [3] = assay: OSK (without c-Myc) reprogramming of Oct4-EGFP MEFs, GFP+ colony count
Excerpt: (§2) Oct4-EGFP MEFs were derived from the mouse strain B6; 129S4-Pou5f1^tm2(EGFP)Jae/J (The Jackson Laboratory, Bar Harbor, Me., USA, on the world wide web at jax.org/; stock #008214) following the protocol on the WiCell Research Institute, Madison, Wis., USA, on the world wide web at wicell.org/website. In brief, embryonic day 13.5 (E13.5) embryos were collected from timemated pregnant female mice and then tested for microbial contamination. Oct4-EGFP MEFs were maintained in MEF complete medium (Dulbecco's modified Eagle's medium [For DMEM or culture medium & materials: Gibco Cell Culture, Carlsbad, Calif., USA, on the world wide web at invitrogen.com/gibco] with 10% fetal bovine serum (FBS), nonessential amino acids, L-glutamine, and no sodium pyruvate). Cells passaged fewer than five times were used for induced reprogramming.
as §1, with “(2006)). In brief, 4×10^4 Oct4-EGFP MEF were transduced with pMX retroviruses for ectopic expression of Oct4, Sox2, Klf4, and c-Myc (Addgene).” for “(2006)).”

Oct4-EGFP MEFs [4] = assay: OSKM-induced reprogramming of Oct4-EGFP MEFs to iPS cells, GFP+ colony count
Excerpt: as §2
Reprogramming was conducted as described in Takahashi et al. (Cell 126: 663-676 (2006)). In brief, 4×10^4 Oct4-EGFP MEF were transduced with pMX retroviruses for ectopic expression of Oct4, Sox2, Klf4, and c-Myc (Addgene). Three days later, cells were fed ES medium (DMEM with 15% ES-screened FBS, nonessential amino acids, L-glutamine, monothioglycerol, and 1000 U/ml leukemia inhibitory factor (LIF)) and the media was changed every other day. Reprogrammed (EGFP+) cells were identified and scored by fluorescence microscopy two to three weeks post transduction, unless otherwise stated. To derive iPSCs, EGFP+ colonies were manually picked under a stereomicroscope (Leica Microsystems). In the case of small molecule treatment, indicated small molecules were applied to reprogramming cells on day four post-transduction and fresh medium was added every other day for at least two weeks or until EGFP+ colonies appeared.
For reprogramming, retrovirus expressing reprogramming factors (Oct4, Sox2, Klf4, and c-Myc) were added and the medium was then changed to complete medium next day. For overexpression of COX2 transgene, retroviruses expressing COX2 were added 1 day after OSKM transduction. siRNAs were introduced at day 5 post-transduction.

## COC(=O)[C@H]1[C@H]2C[C@H]3c4[nH]c5ccccc5c4CCN3C[C@@H]2CC[C@@H]1O.Cl [Corynanthine hydrochloride]
Oct4-EGFP MEFs [1]
  effect on AP+ colony formation: not showing adverse effect

## 4-hydroxytamoxifen [4-hydroxytamoxifen (OHTM)]
Oct4-EGFP MEFs [1]
  effect on AP+ colony formation: not showing adverse effect
Oct4-EGFP MEFs [2]; 1.25 uM, day 15~21, vs OKM+DMSO (FIG. 3C)
  effect on OKM-induced reprogramming: significantly improved
Sox2; day 12
  induction of endogenous Sox2 mRNA: 220%
Sox2; day 16
  induction of endogenous Sox2 mRNA: 400%

## COc1ccc2cc(CCC(C)=O)ccc2c1 [Nabumetone]
Oct4-EGFP MEFs [3]; OSK without c-Myc, treated four days after transduction, day 21, compared with OSK+DMSO (FIG. 3A)
  enhancement of reprogramming by OSK: ~2.5 fold
Oct4-EGFP MEFs [4]; in the presence of control siRNA (siNT), compared with DMSO treatment, day 12~14 (FIG. 2C)
  enhancement of reprogramming efficiency: more than 6 fold
Oct4-EGFP MEFs [4]; treated four days after transduction, compared with DMSO controls (FIG. 2B)
  increase in number of reprogrammed (GFP+) colonies: at least 2.8 fold
Oct4-EGFP MEFs [1]
  effect on AP+ colony formation: not showing adverse effect
Oct4-EGFP MEFs [2]; 2.18 uM, day 17~21 (FIG. 3D)
  effect on OKM-induced reprogramming: significantly improved

## O=C(NCCN1CCOCC1)c1ccc(Cl)cc1 [Moclobemide]
Oct4-EGFP MEFs [1]
  effect on AP+ colony formation: not showing adverse effect

## COc1ccc2c(c1)c(CC(=O)O)c(C)n2C(=O)c1ccc(Cl)cc1 [indomethacin]
Oct4-EGFP MEFs [3]; OSK, applied day 4~5 post transduction, scored two weeks post transduction (FIG. 6B)
  effect on iPSC generation (EGFP+ colony number): no effect
Oct4-EGFP MEFs [4]; applied day 4~5 post transduction, scored two weeks post transduction (FIG. 6A)
  effect on iPSC generation (EGFP+ colony number): no effect
